# Reference: patent publication US4668688A, “N-substituted isoquinoline derivatives and pharmaceutical compositions containing them” (Richter Gedeon Vegyeszeti Gyar R.T., priority 1983, dated 1987)
# Read-outs that look alike come from different tables or passages of the source.
# How the values were obtained:
# [1] = tested on: Metrazole Spasm; assay: Metrazole Spasm (mice), antispasm activity; format: in vivo, CFLP (LATI) mice; settings: for Antispasm activity metrazole b: b) tonic extensoric spasm, 30 mg/kg orally
# Description: (§1) For the pharmacological tests CFLP (LATI) mice of both sexes, weighing 18 to 22 g each and male Han. Wistar (LATI) rats weighing 160 to 180 g each were used. The test materials were administered orally, in 30 mg/kg doses, in the form of a suspension containing 5% of Tween 80, one hour before the tests.
# [2] = tested on: Tetrabenazine Catalepsy; assay: Inhibition of Tetrabenazine Catalepsy (rats); format: in vivo, male Han. Wistar (LATI) rats; settings: for Antitetrabenazine activity (%): rats, 30 mg/kg intraperitoneally, one hour before tetrabenazine
# Description: as §1
# 3. Inhibition of Tetrabenazine Catalepsy
# The test was carried out on male rats each weighing 160 to 180 g. The test materials were administered intraperitoneally, in a dose of 30 mg/kg, one hour before tetrabenazine administration.
# [3] = tested on: writhing syndrom; assay: Analgesic Activity (mice), acetic acid writhing syndrom; format: in vivo, CFLP (LATI) mice; settings: for ED50: Mus musculus, po, read-out: Analgesic activity, ED50
# Description: as §1, with “tests. 4. Analgesic Activity (mice) One hour after pretreatment, mice were administered 0.4 ml of a 0.6% acetic acid solution intraperitoneally, as a pain stimulus. The frequency of writhing syndrom is registered for 30 minutes.” for “tests.”
# [4] = tested on: Hyperthermia; assay: Antipyretic Activity (rats), Brewer's yeast hyperthermia; format: in vivo, male Han. Wistar (LATI) rats; settings: 30 mg/kg orally, 4 h after yeast, % of animals at least one centigrade lower than control
# Description: as §1
# 5. Antipyretic Activity (rats)
# Hyperthermia is induced in rats with Brewer's yeast suspension (0.5% of Brewer's yeast, 1% of arabic gum in a volume of 0.3 ml, s.c.). The animals are treated with the test materials 4 hours later, and the tracheal temperature of the animals is registered with an ELAB thermometer (typ. TE-3) for 4 hours.
# [5] = mice, pentylenetetrazole 125 mg/kg s.c.
Compound,"Antispasm activity metrazole b [1, 5]",anticonvulsive effect (in words) ([1]; test not given),Antitetrabenazine activity (%) [2] [%],antidepressive effect (in words) ([2]; test not given),"ED50 ([3]; value marked ^x = ED50, mice, orally, 0.6% acetic acid i.p. writhing) [mg/kg]","analgesic activity (in words) ([3]; acetic acid writhing, mice)","analgesic activity relative to reference compound (Na-salicylate) ([3]; acetic acid writhing, mice)",Antipyretic activity (%) [4] [%],"ED50 ([1]; Mus musculus, po; value marked ^x = ED50; b) tonic extensoric spasm, mice, orally, pentylenetetrazole 125 mg/kg s.c.) [mg/kg]","Analgesic activity (%) ([3]; mice, 30 mg/kg orally, 0.4 ml 0.6% acetic acid i.p., 30 minutes, vs control)","influence on writhing syndrom induced with acetic acid (in words) ([3]; 30 mg/kg dose, mice)",ED50 [3] [mg/kg]
"COc1cc2c(cc1OC)C(C(CO)CO)N(C)CC2.Cl (centres unmarked) [Compound A, 1-[bis(hydroxymethyl)-methyl]-2-methyl-6,7-dimethoxy-1,2,3,4-tetrahydroisoquinoline hydrochloride]",20.0,remarkable anticonvulsive and antidepressive effects,20.0,remarkable anticonvulsive and antidepressive effects,28,valuable analgesic activity,four times more active than the reference compound,20.0,–,–,–,–
"CCOc1cc2c(cc1OCC)C(C(CO)CO)N(CC(O)CC)CC2.Cl (stereo not drawn) [Compound B, 1-[bis-(Hydroxymethyl)-methyl]-2-(β-hydroxybutyl)6,7-diethoxy-1,2,3,4-tetrahydroisoquinoline hydrochloride]",–,–,20.0,–,–,somewhat lower analgesic activity than the above 2-methyl-compound,–,20.0,20,40.0,–,–
"O=C(O)c1ccccc1O [Na--salicylate, Na-salicylate, reference compound]",20.0,–,–,–,–,–,–,40.0,–,–,practically not influenced,113
